Experimental data as given in patent publication EP4007494B1, “METHOD OF IMPROVING COLD STRESS TOLERANCE AND CROP SAFETY” (Bayer CropScience LLC, priority 2019, dated 2021).
Where two headings read alike, the source gives them in different places.

Test system: canola
Details: for Average Relative Yield: relative to PROSPER EVERGOL

## O=C1C=C(N(Cc2ccc(Cl)nc2)CC(F)F)CO1 [Flupyradifurone, flupyradifurone]
Flupyradifurone 5 g per kg seed, alone or + QST713 1 × 10^6 CFU per seed
  Average Relative Yield: 102.0%
Flupyradifurone 10 g per kg seed
  Average Relative Yield: 100.5%
In vivo
  Average Relative Stand Density: 83.2%
  Average Vigor Rating: 4.2
  Relative Delay in Emergence: 3.5 days
  average relative stand density: decreased
  delay in emergence: significant delay in emergence
